Source: ChEMBL document CHEMBL1144408, “Novel atypical antipsychotic agents: rational design, an efficient palladium-catalyzed route, and pharmacological studies” (J Med Chem, 2005)
“And” between values parts separate entries of the source, which are not always exact repeats. Identical values can stand only once.

Assays:
D(1A) dopamine receptor = D(1A) dopamine receptor (Rattus norvegicus, UniProt P18901)
Description: Inhibition of [3H]-SCH- 23390 binding to rat dopamine D1 receptor

D(3) dopamine receptor = D(3) dopamine receptor (Homo sapiens, UniProt P35462); assay: biochemical
Chain of D(3) dopamine receptor (P35462 whole entry): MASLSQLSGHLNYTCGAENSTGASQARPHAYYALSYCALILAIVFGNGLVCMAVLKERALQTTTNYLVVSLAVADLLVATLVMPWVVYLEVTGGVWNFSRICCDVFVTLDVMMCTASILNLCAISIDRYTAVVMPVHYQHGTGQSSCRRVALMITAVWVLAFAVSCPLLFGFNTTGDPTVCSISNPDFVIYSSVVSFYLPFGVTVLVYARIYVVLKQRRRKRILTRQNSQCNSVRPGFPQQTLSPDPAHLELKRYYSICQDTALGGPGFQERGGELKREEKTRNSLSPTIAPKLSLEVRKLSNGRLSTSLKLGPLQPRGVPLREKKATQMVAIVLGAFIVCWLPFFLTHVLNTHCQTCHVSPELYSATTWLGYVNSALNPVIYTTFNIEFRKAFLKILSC
Description: Inhibition of [3H]7-OH-DPAT binding to Dopamine D3 receptor expressed in Sf9 cells

Rattus norvegicus [1] = assay: In vivo effective dose against catalepsy response was determined in rats; format: functional
Rattus norvegicus [2] = assay: In vivo effective dose was determined against apomorphine climbing in rats; format: functional
Rattus norvegicus [3] = assay: In vivo effective dose against 5-MeO-DMT-induced head twitches in rats was determined; format: functional
Rattus norvegicus [4] = assay: In vivo effective dose of compound against 5-MeO-DMT induced head twitches in rats; format: functional
[5] = biological target: T1, 5-hydroxytryptamine receptor 2C (Rattus norvegicus, UniProt P08909); assay: Inhibition of [3H]mesulergine binding to rat 5-hydroxytryptamine 2C receptor
T1 sequence (P08909 whole entry): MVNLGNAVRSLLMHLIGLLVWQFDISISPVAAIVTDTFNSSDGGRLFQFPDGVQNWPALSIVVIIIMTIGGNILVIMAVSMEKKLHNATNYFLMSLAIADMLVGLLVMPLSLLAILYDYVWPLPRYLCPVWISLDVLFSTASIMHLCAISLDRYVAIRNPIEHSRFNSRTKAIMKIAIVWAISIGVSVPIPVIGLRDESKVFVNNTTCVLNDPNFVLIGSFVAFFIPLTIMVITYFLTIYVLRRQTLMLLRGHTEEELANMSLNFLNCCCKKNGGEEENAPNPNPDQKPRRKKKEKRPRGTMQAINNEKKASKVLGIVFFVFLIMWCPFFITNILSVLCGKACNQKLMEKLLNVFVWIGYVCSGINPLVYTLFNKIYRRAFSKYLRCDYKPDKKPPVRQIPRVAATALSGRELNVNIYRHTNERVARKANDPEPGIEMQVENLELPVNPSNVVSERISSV

Rattus norvegicus [6] = species: Rattus norvegicus; assay: animal or person
Description: In vivo effective dose against spontaneous locomotor activity was determined in rats

Rattus norvegicus [7] = species: Rattus norvegicus; assay: animal or person; remark: listed apart in the source
Description: In vivo effective dose against conditioned avoidance response was determined in rats

Chain of D(1A) dopamine receptor (P18901 whole entry): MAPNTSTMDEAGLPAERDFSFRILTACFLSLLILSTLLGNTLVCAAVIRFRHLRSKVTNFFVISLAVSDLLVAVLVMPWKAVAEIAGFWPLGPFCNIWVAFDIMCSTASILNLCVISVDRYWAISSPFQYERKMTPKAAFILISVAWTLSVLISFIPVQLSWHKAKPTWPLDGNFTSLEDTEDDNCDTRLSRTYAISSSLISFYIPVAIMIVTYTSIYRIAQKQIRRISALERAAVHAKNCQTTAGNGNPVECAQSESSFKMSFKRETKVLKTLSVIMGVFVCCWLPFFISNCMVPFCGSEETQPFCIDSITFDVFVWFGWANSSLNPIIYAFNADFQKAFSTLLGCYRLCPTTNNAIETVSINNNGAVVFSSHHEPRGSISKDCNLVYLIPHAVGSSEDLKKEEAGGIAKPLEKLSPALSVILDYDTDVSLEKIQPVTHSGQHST

| Compound | Ki (D(1A) dopamine receptor) [nM] | Ki (D(3) dopamine receptor) [nM] | ED50 (Rattus norvegicus [1]) | ED50 (Rattus norvegicus [2]) | ED50 (Rattus norvegicus [3]) [µmol/kg] | ED50 (Rattus norvegicus [4]) [mg/kg] | Ki [5] [nM] | ED50 (Rattus norvegicus [6]) | ED50 (Rattus norvegicus [7]) |
| --- | --- | --- | --- | --- | --- | --- | --- | --- | --- |
| CN1CCN(C2=Cn3cccc3Sc3sccc32)CC1 | 4.91 | 25 | – | – | – | – | – | – | – |
| CN1CCN(C2=Nc3cc(Cl)ccc3Nc3ccccc32)CC1 [CLOZAPINE] | – | – | > 100 mg/kg and > 306 µmol/kg | 5.72 mg/kg and 17.5 µmol/kg | 16.4 | 5.35 | – | – | – |
| CN1CCN(C2=Cc3cc(Cl)ccc3Cn3cccc32)CC1 | 47.4 | 24.2 | – | – | – | – | 3.8 | – | – |
| CN1CCN(C2=Cn3cccc3Sc3ccccc32)CC1 | – | – | > 100 mg/kg and > 336 µmol/kg | 1.64 mg/kg and 5.51 µmol/kg | 6.69 | 1.99 | – | 0.51 mg/kg | – |
| CN1CCN(C2=Cc3ccccc3Cn3cccc32)CC1 | – | 224 | > 100 mg/kg and > 357 µmol/kg | 0.5 µmol/kg and 0.14 mg/kg | 0.43 | 0.12 | – | 1.6 mg/kg and 5.73 µmol/kg | 0.56 mg/kg and 2 µmol/kg |
| Cc1ccc2n1Cc1ccccc1C=C2N1CCN(C)CC1 | 230 | 88.6 | – | – | – | – | 15 | – | – |
